The target of experiment [1] is T1, THERMINATOR™ DNA polymerase (Thermococcus sp., UniProt Q56366, A485L/D141A/E143A).
T1 construct: purchased New England Biolabs
The experiment is described as follows: biochemical. More on the design: species or system Thermococcus species 9° N-7. As to the method:
Natural and modified nucleotides were tested for incorporation efficiency using the “polymerase end point assay” (Wu et al., 2007, which is incorporated herein by reference). This assay examines incorporation efficiency on matched and mismatched template bases. Incorporation efficiency is measured by determining the concentration at which the compound incorporates on half the primer-template complexes (IC50). Titrations of increasing compound concentration were performed to generate curves from which the IC50 can be determined.
The sequence of the template DNA is selected depending on which compound will be tested. For example, the first interrogation base after the primer in the template sequence is the complement base of the compound when measuring incorporation efficiency, and one of three mismatched bases when measuring mismatch discrimination properties.
(§1) To the annealed reaction, a DNA polymerase (e.g., THERMINATOR™ DNA polymerase, 0.25 units per reaction, New England Biolabs), 1× Thermopol Buffer, and a known concentration of either natural or modified nucleotide are added to each 10 μL reaction and incubated at 75° C. for 10 minutes, cooled on ice, and quenched with 10 μL of stop solution (98% formamide: 10 mM Na2EDTA, pH=8.0, 25 mg/ml Blue Dextran). Stopped reactions are heated to 75° C. for 30 seconds to denature the DNA, and then placed on ice. The extension products are analyzed on a 10% Long Ranger (Lonza) polyacrylamide gel using an ABI model 377 DNA sequencer. Additional details are provided in Example 1, below.
Polymerase Assays. Natural and modified nucleotides were tested for incorporation efficiency using the “polymerase end point assay” (Wu et al., 2007, which is incorporated herein by reference). This assay examines incorporation efficiency on matched and mismatched template bases. Incorporation efficiency is measured by determining the concentration at which the compound incorporates on half the primer-template complexes (IC50). Titrations of increasing compound concentration were performed to generate curves from which the IC50 can be determined.
The assay is performed by first annealing 5 nM of BODIPY-FL labeled primer with 40 nM template DNA in 1× Thermopol Buffer (20 mM Tris-HCl, pH 8.8; 10 mM (NH4)2SO4; 10 mM KCl; 2 mM MgSO4; 0.1% Triton X-100, New England BioLabs).
The temperature cycle to complete primer annealing is 80° C. for 30 seconds, 57° C. for 30 seconds, then cooling to 4° C. The sequence of the template DNA is selected depending on which compound will be tested. For example, the first interrogation base after the primer in the template sequence is the complement base of the compound when measuring incorporation efficiency, and one of three mismatched bases when measuring mismatch discrimination properties.
as §1, with “sequencer.” for “sequencer. Additional details are provided in Example 1, below.”

The target of experiment [2] is T1, THERMINATOR™ DNA polymerase. The experiment is described as follows: termination assay, weighted sum analysis on homopolymer repeat template. Type of experiment: biochemical, Thermococcus species 9° N-7. The note with it: 1.0 = complete termination after a single incorporation. As to the method: A weighted sum of 1.0 represents complete termination after a single incorporation, while a value greater than 1.0 indicates incorporation beyond the +1 position (e.g. nucleotide read through). […] The assay is performed as described above for the polymerase end-point assay, except that the template used is a homopolymer repeat, thereby allowing for multiple incorporations of a given nucleotide compound.

Setting [3] is: concentration at which the compound incorporates on half the primer-template complexes, complement template base, read-out: IC50 for incorporation.
Where [4] appears, read: IC50 for incorporation, concentration at which the compound incorporates on half the primer-template complexes, complement template base.
The mark [5] stands for this setting: Adj IC50 Conc (nM), adjusted IC50 used to set the concentrations of the termination assay.

Several values for one entry are separate records, joined by “and”; a condition that tells them apart may be missing. Identical values can stand only once. Like-named read-outs stand apart in the source and are kept apart here.

T1 sequence (Q56366 whole entry D141A/E143A/A485L): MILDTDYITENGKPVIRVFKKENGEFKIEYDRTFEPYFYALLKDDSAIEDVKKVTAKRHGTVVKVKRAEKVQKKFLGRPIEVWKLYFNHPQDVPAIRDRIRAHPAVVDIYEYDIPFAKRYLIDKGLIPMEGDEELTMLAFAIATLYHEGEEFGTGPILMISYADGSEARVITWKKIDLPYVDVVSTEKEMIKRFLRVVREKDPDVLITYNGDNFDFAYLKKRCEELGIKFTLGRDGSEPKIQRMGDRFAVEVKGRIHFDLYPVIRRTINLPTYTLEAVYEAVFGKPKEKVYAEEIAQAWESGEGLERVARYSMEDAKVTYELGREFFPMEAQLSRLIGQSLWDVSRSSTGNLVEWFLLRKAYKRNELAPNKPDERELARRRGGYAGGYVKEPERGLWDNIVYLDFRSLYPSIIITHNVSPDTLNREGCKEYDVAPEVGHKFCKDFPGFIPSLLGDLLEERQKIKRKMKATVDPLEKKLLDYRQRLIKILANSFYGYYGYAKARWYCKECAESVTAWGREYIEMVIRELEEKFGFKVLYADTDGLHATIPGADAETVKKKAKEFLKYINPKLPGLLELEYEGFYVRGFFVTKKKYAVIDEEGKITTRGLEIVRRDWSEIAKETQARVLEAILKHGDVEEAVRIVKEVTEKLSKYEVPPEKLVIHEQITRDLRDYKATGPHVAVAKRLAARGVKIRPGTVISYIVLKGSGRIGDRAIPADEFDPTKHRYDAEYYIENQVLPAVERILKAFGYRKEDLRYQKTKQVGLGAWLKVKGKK

“5-(α-isopropyl-2-nitrobenzyloxy)methyl-2′-dUTP-5-R6G [6p005]”: in experiment [1] (setting [3]), the IC50 was 15 ± 1 nM.

For the molecule “5-(α-isopropyl-2-nitrobenzyloxy)methyl-2′-dUTP-6-FAM [6p094]”, the IC50 in experiment [1] (setting [3]) stood at 8.1 ± 0.2 nM.

For “5-(α-isopropyl-2-nitrobenzyloxy)methyl-2′-dUTP-6-ROX [6p044]”, the IC50 in experiment [1] (setting [3]) stood at 18 ± 1 nM.

Regarding “6-ROX labeled 7-{(R)-1-[4-(3-amino-1-propynyl)-2-nitrophenyl]-2-methyl-propyloxy}methyl-7-deaza-2′-deoxyguanosine-5′-triphosphate [6p034]”, the IC50 in experiment [1] (setting [3]) is 7.4 ± 0.1 nM.

As to `CC(OCc1cn([C@H]2C[C@H](O)[C@@H](COP(=O)(O)OP(=O)(O)OP(=O)(O)O)O2)c(=O)[nH]c1=O)c1ccccc1[N+](=O)[O-]` (mixture of isomers) [2p043, 5-(α-methyl-nitrobenzyl-oxymethyl)-2′-dUTP], the IC50 in experiment [1] (adjusted IC50 used to set the concentrations of the termination assay, read-out: Adj IC50 Conc) was 1.7 nM; in experiment [1] (setting [3]) it was 1.7 ± 0.2 nM. Moreover, the “Average Weighted Sum ± SD” value in experiment [2] (1x IC50) came to 0.53 ± 0.06; in experiment [2] (5x IC50), 1.1 ± 0.0; in experiment [2] (25x IC50), 1.7±0.1.

In experiment [1] (setting [4]), `CC(Oc1nc(N)nc2c1ncn2[C@H]1C[C@H](O)[C@@H](COP(=O)(O)OP(=O)(O)OP(=O)(O)O)O1)c1ccccc1[N+](=O)[O-]` (mixture of isomers) [2p143, O^6-(α-methyl-2-nitrobenzyl)-2′-dGTP] returned an IC50 of 10 nM.

As for `CC(C)C(OCc1cn([C@H]2C[C@H](O)[C@@H](COP(=O)(O)OP(=O)(O)OP(=O)(O)O)O2)c(=O)[nH]c1=O)c1ccccc1[N+](=O)[O-]` (mixture of isomers) [2p148, 5-(α-isopropyl-2-nitrobenzyloxy)methyl-2′-dUTP], the values for the IC50 in experiment [1] (setting [5]) and in experiment [1] (setting [3]) were 2.1 nM and 2.3 ± 0.1 nM, respectively. The “Average Weighted Sum ± SD” value was 0.59 ± 0.02 in experiment [2] (1x IC50); 0.99 ± 0.01 in experiment [2] (5x IC50); 1.0 and 1.0 ± 0.01 in experiment [2] (25x IC50).

In turn, `CC(Nc1ncnc2c1ncn2[C@H]1C[C@H](O)[C@@H](COP(=O)(O)OP(=O)(O)OP(=O)(O)O)O1)c1ccccc1[N+](=O)[O-]` (mixture of isomers) [3p006, N^6-(α-methyl-2-nitrobenzyl)-2′-dATP] gave an IC50 in experiment [1] (setting [4]) of 8.5 ± 1.8 nM.

`CC(C)C(OCc1cn([C@H]2C[C@H](O)[C@@H](COP(=O)(O)OP(=O)(O)OP(=O)(O)O)O2)c(=O)[nH]c1=O)c1ccccc1` (mixture of isomers) [5p111, 5-(α-isopropyl-benzyloxy)methyl-2′-dUTP]: the IC50 in experiment [1] (setting [5]) and in experiment [1] (setting [4]) was 0.8 nM each time. The “Average Weighted Sum ± SD” value in experiment [2] (1x IC50) was 0.44 ± 0.02; in experiment [2] (5x IC50), 0.96 ± 0.01; in experiment [2] (25x IC50), 1.1 and 1.1 ± 0.03.

Consider `CC(C)(C)C(OCc1cn([C@H]2C[C@H](O)[C@@H](COP(=O)(O)OP(=O)(O)OP(=O)(O)O)O2)c(=O)[nH]c1=O)c1ccccc1[N+](=O)[O-]` (single isomer, unassigned) [3p075, 5-[(R or S)-1-(2-nitrophenyl)-2,2-dimethyl-1-propyloxy]methyl-2′-deoxyuridine-5′-triphosphate], for which, in experiment [1] (setting [4]), the IC50 was 3 nM.

Regarding `CC(C)C(Nc1ncnc2c1ncn2[C@H]1C[C@H](O)[C@@H](COP(=O)(O)OP(=O)(O)OP(=O)(O)O)O1)c1ccccc1[N+](=O)[O-]` (single isomer, unassigned) [6p063, N^6-(α-isopropyl-2-nitrobenzyl)-2′-dATP], the IC50 in experiment [1] (setting [4]) is 12 ± 1 nM.

In experiment [1] (setting [4]), `Nc1nc(OCc2ccccc2[N+](=O)[O-])c2ncn([C@H]3C[C@H](O)[C@@H](COP(=O)(O)OP(=O)(O)OP(=O)(O)O)O3)c2n1` [2p108, O^6-(2-nitrobenzyl)-2′-dGTP] came in with an IC50 of 4 ± 0.7 nM.

On to `CC(C)[C@H](OCc1cn([C@H]2C[C@H](O)[C@@H](COP(=O)(O)OP(=O)(O)OP(=O)(O)O)O2)c(=O)[nH]c1=O)c1ccccc1[N+](=O)[O-]` [3p063, 5-[(S)-1-(2-nitrophenyl)-2-methyl-propyloxy]methyl-2′-deoxyuridine-5′-triphosphate], for which the IC50 in experiment [1] (setting [4]) came out at 2 nM.

As for `CC(C)[C@H](OCc1cn([C@H]2C[C@H](O)[C@@H](COP(=O)(O)OP(=O)(O)OP(=O)(O)O)O2)c(=O)nc1N)c1ccccc1[N+](=O)[O-]` [3p065, 5-[(S)-1-(2-nitrophenyl)-2-methyl-propyloxy]methyl-2′-deoxycytidine-5′-triphosphate], in experiment [1] (setting [4]), the IC50 was determined as 1.1 ± 0.1 nM.

In experiment [1] (setting [4]), `Nc1ncnc2c1c(COCc1ccccc1[N+](=O)[O-])cn2[C@H]1C[C@H](O)[C@@H](COP(=O)(O)OP(=O)(O)OP(=O)(O)O)O1` [5p085, 7-(2-nitrobenzyloxy)methyl-7-deaza-2′-deoxyadenosine-5′-triphosphate] yielded an IC50 of 3.6 ± 0.3 nM.

For `O=c1[nH]c(=O)n([C@H]2C[C@H](O)[C@@H](COP(=O)(O)OP(=O)(O)OP(=O)(O)O)O2)cc1COCc1ccccc1` [5p145, 5-(benzyloxy)methyl-2′-deoxyuridine-5′-triphosphate], the IC50 in experiment [1] (setting [5]) and in experiment [1] (setting [4]) was 1.4 nM each time. In addition, the “Average Weighted Sum ± SD” value is 0.43 ± 0.1 in experiment [2] (1x IC50); 1.3 ± 0.3 in experiment [2] (5x IC50); 2.9 and 2.9 ± 0.4 in experiment [2] (25x IC50).

Turning to `Cc1ccccc1COCc1cn([C@H]2C[C@H](O)[C@@H](COP(=O)(O)OP(=O)(O)OP(=O)(O)O)O2)c(=O)[nH]c1=O` [5p147, 5-(2-methylbenzyloxy)methyl-2′-deoxyuridine-5′-triphosphate], the IC50 in experiment [1] (setting [5]) and in experiment [1] (setting [4]) was 1.4 nM each time. The “Average Weighted Sum ± SD” value in experiment [2] (1x IC50) is on record as 0.51 ± 0.1; in experiment [2] (5x IC50), 1.5 ± 0.3; in experiment [2] (25x IC50), 2.6 ± 0.4.

`CC(C)c1ccccc1COCc1cn([C@H]2C[C@H](O)[C@@H](COP(=O)(O)OP(=O)(O)OP(=O)(O)O)O2)c(=O)[nH]c1=O` [5p149, 5-(2-isopropylbenzyloxy)methyl-2′-deoxyuridine-5′-triphosphate]: the IC50 in experiment [1] (setting [5]) and in experiment [1] (setting [4]) was 1.4 nM in each case. The “Average Weighted Sum ± SD” value stood at 0.53 ± 0.1 in experiment [2] (1x IC50), 1.3 ± 0.1 in experiment [2] (5x IC50) and 2.2 ± 0.2 in experiment [2] (25x IC50).

Turning to `O=c1[nH]c(=O)n([C@H]2C[C@H](O)[C@@H](COP(=O)(O)OP(=O)(O)OP(=O)(O)O)O2)cc1COCc1ccccc1-c1ccccc1` [6p010, 5-(2-phenylbenzyloxy)methyl-2′-deoxyuridine-5′-triphosphate], the IC50 in experiment [1] (setting [5]) and in experiment [1] (setting [4]) was 1.4 nM each time. Further, the “Average Weighted Sum ± SD” value in experiment [2] (1x IC50) is 0.46 ± 0.1; in experiment [2] (5x IC50), 1.1 ± 0.1; in experiment [2] (25x IC50), 1.7 and 1.7 ± 0.3.

As for `Nc1ccn([C@H]2C[C@H](O)[C@@H](COP(=O)(O)OP(=O)(O)OP(=O)(O)O)O2)c(=O)n1` [dCTP, reference compound], the IC50 in experiment [1] (setting [3]) was 3 ± 0.6 nM.

For “C^7-(α-isopropyl-2-nitrobenzyloxy)methyl-2′-dATP-6-CR110 [5p130-LP2]”, in experiment [1] (setting [3]), the IC50 stood at 15 ± 3 nM.

Values taken from US9200319B2, “Nucleotides and nucleosides and methods for their use in DNA sequencing” (Lasergen, Inc., priority 2008, dated 2015).
